According to ChEMBL document CHEMBL1158329, “Four new cytotoxic germacranolides from Carpesium divaricatum” (1997):
≈ marks a conversion by molar mass, not a printed value.

How the values were obtained:
Type in all cases: functional
Conditions in all cases: read-out: ED50 (the source's name)
HCT-15 = test: Cytotoxicity against human HCT15 cells by SRB assay
SK-OV-3 = test: Cytotoxicity against human SKOV3 cells by SRB assay
SK-MEL-2 = test: Cytotoxicity against human SK-MEL-2 cells by SRB assay
XF498 = test: Cytotoxicity against human XF498 cells by SRB assay
A549 = test: Cytotoxicity against human A549 cells by SRB assay

C=C1C(=O)O[C@@H]2[C@@H]1[C@H](OC(=O)/C(C)=C\C)C(=O)[C@@H](C)C[C@H](O)C[C@](C)(O)[C@H]2OC(=O)C(C)CC (stereo not given in full) [CARDIVIN A]
EC50 (HCT-15): 1.28 µg/mL (≈ 2.66 µM) | EC50 (SK-OV-3): 1.47 µg/mL (≈ 3.06 µM) | EC50 (SK-MEL-2): 1.16 µg/mL (≈ 2.41 µM) | EC50 (XF498): 1.4 µg/mL (≈ 2.91 µM) | EC50 (A549): 3.17 µg/mL (≈ 6.6 µM)

C=C1C(=O)O[C@@H]2[C@@H]1[C@H](OC(=O)C(C)C)C(=O)[C@@H](C)C[C@H](O)C[C@](C)(O)[C@H]2OC(=O)C(C)C [CARDIVIN D]
EC50 (HCT-15): 3 µg/mL (≈ 6.6 µM) | EC50 (SK-OV-3): 3.78 µg/mL (≈ 8.32 µM) | EC50 (SK-MEL-2): 1.88 µg/mL (≈ 4.14 µM) | EC50 (XF498): 3.05 µg/mL (≈ 6.71 µM) | EC50 (A549): 8.36 µg/mL (≈ 18.4 µM)

C=C1C(=O)O[C@@H]2[C@@H]1[C@H](OC(=O)C(C)CC)C(=O)[C@@H](C)C[C@H](O)C[C@](C)(O)[C@H]2OC(=O)C(C)C (stereo not given in full) [CARDIVIN B]
EC50 (HCT-15): 2.06 µg/mL (≈ 4.4 µM) | EC50 (SK-OV-3): 2.24 µg/mL (≈ 4.78 µM) | EC50 (SK-MEL-2): 1.45 µg/mL (≈ 3.09 µM) | EC50 (XF498): 1.69 µg/mL (≈ 3.61 µM) | EC50 (A549): 3.71 µg/mL (≈ 7.92 µM)

C=C1C(=O)O[C@@H]2[C@@H]1[C@H](OC(=O)C(C)C)C(=O)[C@@H](C)C[C@H](O)C[C@](C)(O)[C@H]2OC(=O)/C(C)=C\C [CARDIVIN C]
EC50 (HCT-15): 1.38 µg/mL (≈ 2.96 µM) | EC50 (SK-OV-3): 1.6 µg/mL (≈ 3.43 µM) | EC50 (SK-MEL-2): 1.08 µg/mL (≈ 2.31 µM) | EC50 (XF498): 1.31 µg/mL (≈ 2.81 µM) | EC50 (A549): 3.12 µg/mL (≈ 6.69 µM)

COc1cccc2c1C(=O)c1c(O)c3c(c(O)c1C2=O)C[C@@](O)(C(=O)CO)C[C@@H]3O[C@H]1C[C@H](N)[C@H](O)[C@H](C)O1 [DOXORUBICIN]
EC50 (HCT-15): 2.4 µg/mL (≈ 4.42 µM) | EC50 (SK-OV-3): 0.13 µg/mL (≈ 0.239 µM) | EC50 (SK-MEL-2): 0.11 µg/mL (≈ 0.202 µM) | EC50 (XF498): 0.23 µg/mL (≈ 0.423 µM) | EC50 (A549): 0.12 µg/mL (≈ 0.221 µM)
